Reference: ChEMBL document CHEMBL3351769, “Poly-guanidinoethylphenylethers organised around a benzene ring: synthesis and evaluation of their antibacterial and cytotoxic properties” (Bioorg Med Chem Lett, 2014)

Experiments:
[1] = Selectivity index, ratio of IC50 for human MRC5 cells after 24 hrs to MIC for Pseudomonas aeruginosa ATCC 27853; type: toxicity, cell-based; details: read-out: Selectivity Index
Enterococcus faecalis = experiment: Antimicrobial activity against Enterococcus faecalis ATCC 29212 by broth microdilution method; type: functional
MRC5 [2] = experiment: Cytotoxicity against human MRC5 cells after 24 hrs by MTT assay; type: cell-based; details: MRC5, 24 h
Staphylococcus aureus [3] = experiment: Antimicrobial activity against Staphylococcus aureus ATCC 29213 by broth microdilution method; type: functional
[4] = Selectivity index, ratio of IC50 for human MRC5 cells after 24 hrs to MIC for Staphylococcus aureus ATCC 25923; type: toxicity, cell-based; details: read-out: Selectivity Index
Escherichia coli = experiment: Antimicrobial activity against Escherichia coli ATCC 25922 by broth microdilution method; type: functional
MRC5 [5] = experiment: Cytotoxicity against human MRC5 cells after 48 hrs by MTT assay; type: cell-based; details: MRC5, 48 h
Pseudomonas aeruginosa = experiment: Antimicrobial activity against Pseudomonas aeruginosa ATCC 27853 by broth microdilution method; type: functional
[6] = Selectivity index, ratio of IC50 for human MRC5 cells after 24 hrs to MIC for Enterococcus faecalis ATCC 29212; type: toxicity, cell-based; details: read-out: Selectivity Index
[7] = Selectivity index, ratio of IC50 for human MRC5 cells after 24 hrs to MIC for Escherichia coli ATCC 25922; type: toxicity, cell-based; details: read-out: Selectivity Index
Staphylococcus aureus [8] = experiment: Antimicrobial activity against Staphylococcus aureus ATCC 25923 by broth microdilution method; type: functional
[9] = Selectivity index, ratio of IC50 for human MRC5 cells after 24 hrs to MIC for Staphylococcus aureus ATCC 29213; type: toxicity, cell-based; details: read-out: Selectivity Index

SMILES | selectivity ratio at 24 h [1] | MIC (Enterococcus faecalis) [µg/mL] | IC50 (MRC5 [2]) [µg/mL] | MIC (Staphylococcus aureus [3]) [µg/mL] | selectivity ratio at 24 h [4] | MIC (Escherichia coli) [µg/mL] | IC50 (MRC5 [5]) [µg/mL] | MIC (Pseudomonas aeruginosa) [µg/mL] | selectivity ratio at 24 h [6] | selectivity ratio at 24 h [7] | MIC (Staphylococcus aureus [8]) [µg/mL] | selectivity ratio at 24 h [9]
N=C(N)NCCc1ccc(OCc2ccccc2)cc1.O=C(O)C(F)(F)F | 0.4 | 128 | 26 | 8 | 1.5 | 32 | 19 | 64 | 0.2 | 0.8 | 16 | 3
N=C(N)NCCc1ccc(OCc2c(COc3ccc(CCNC(=N)N)cc3)c(COc3ccc(CCNC(=N)N)cc3)c(COc3ccc(CCNC(=N)N)cc3)c(COc3ccc(CCNC(=N)N)cc3)c2COc2ccc(CCNC(=N)N)cc2)cc1.O=C(O)C(F)(F)F | 1.5 | 8 | 26 | 8 | 3 | 16 | 30 | 16 | 3 | 1.5 | 8 | 3
N=C(N)NCCc1ccc(OCc2cc(COc3ccc(CCNC(=N)N)cc3)c(COc3ccc(CCNC(=N)N)cc3)cc2COc2ccc(CCNC(=N)N)cc2)cc1.O=C(O)C(F)(F)F | 6 | 4 | 49 | < 1 | 24.5 | 4 | 38.5 | 8 | 12.2 | 12 | 2 | > 49
N=C(N)NCCc1ccc(OCc2ccccc2COc2ccc(CCNC(=N)N)cc2)cc1.O=C(O)C(F)(F)F | 6.2 | 8 | 100 | < 1 | > 100 | 8 | 41 | 16 | 12.5 | 12.5 | < 1 | > 100
N=C(N)NCCc1ccc(OCc2cc(COc3ccc(CCNC(=N)N)cc3)cc(COc3ccc(CCNC(=N)N)cc3)c2)cc1.O=C(O)C(F)(F)F | 2.5 | 8 | 39.5 | < 1 | > 39.5 | < 1 | 30 | 16 | 5 | > 39.5 | < 1 | > 39.5
N=C(N)NCCc1ccc(OCc2ccc(COc3ccc(CCNC(=N)N)cc3)cc2)cc1.O=C(O)C(F)(F)F | 5.25 | 2 | 21 | 1 | 21 | 4 | 12.7 | 4 | 10.5 | 5.25 | 1 | 21
N=C(N)NCCc1ccc(OCc2cccc(COc3ccc(CCNC(=N)N)cc3)c2)cc1.O=C(O)C(F)(F)F | 1 | 16 | 34.5 | 2 | > 34.5 | 16 | 29.7 | 32 | 2 | 2 | < 1 | 17
